Where two headings read alike, the source gives them in different places.
How the values were obtained:
[1] = tested on: soybean; assay type: in vivo; details: Magnesium chlorate 2000, Glufosinate ammonium 300, combination 2000 + 300 gla/Ha
Method: (§1) The expected efficacy of a combination of magnesium chlorate and co-herbicide was calculated using the well-established Colby method.
(§2) In the Colby method, the expected (or predicted) response of a combination of herbicides is calculated by taking the product of the observed response for each individual component of the combination when applied alone divided by 100 and subtracting this value from the sum of the observed response for each component when applied alone. An unexpected enhancement in efficacy of the combination is then determined by comparing the observed response of the combination to the expected (or predicted) response as calculated from the observed response of each individual component alone. If the observed response of the combination is greater than the expected (or predicted) response, or stated conversely, if the difference between the observed and expected response is greater than zero, then the combination is said to be synergistic or unexpectedly effective. (Colby, S. R., Weeds, 1967 (15), p. 20-22) The Colby method requires only a single dose of each herbicide applied alone and the mixture of both doses.
(§3) The present inventors have adopted the Coby method to calculate synergy of the combination of defoliants. The % defoliation of individual defoliants was calculated and compared to the expected and observed defoliation efficacy.
(§4) The defoliation activity of the individual defoliants of the invention and their combinations were evaluated on multiple crops including wheat, soybean and cotton. The trial was carried out in Randomized Complete Block (RCB) method, all field trials were conducted using this method. Each trial were replicated four times and conducted under GEP guidelines. Application volumes were varied for each mixture. Such field trials were carried out at various locations so as to generate independent data, the locations were chosen randomly across Brazil.
(§5) Field trials were carried out to test the synergy of the combination magnesium chlorate and glufosinate-ammonium which is a ESPS inhibitor herbicide for desiccation in Soybean. The field trials were carried out at various locations in Brazil during spring. The percentage efficacy was calculated after 1, 4 and 7 days of applications. The target crop for defoliation was soybean and the results are recorded in the table below: […]

[2] = tested on: Euphorbia heterophylla
Method: Field trials were carried out to test the synergy of the combination magnesium chlorate and acifluorfen for controlling Euphorbia heterophylla. The field trials were carried out at various locations in Brazil. The percentage efficacy was calculated after 3, 14 and 28 days of applications.

[3] = tested on: Conyza Canadenesis; assay type: in vivo
Method: as §1, §2, §4
Field trials were carried out to test the synergy of the combination magnesium chlorate and glufosinate-ammonium which is a […] herbicides for controlling Conyza Canadenesis. The field trials were carried out at various locations in Brazil. The percentage efficacy was calculated after 3, 14 and 28 days of applications.

[4] = tested on: soybean; details: Magnesium chlorate 1600, Aciflurofen 96, combination 1600 + 96 gla/Ha
[5] = tested on: Cenchrus echinatus
Method: Field trials were carried out to test the synergy of the combination magnesium chlorate and acifluorfen for controlling Cenchrus echinatus. The field trials were carried out at various locations in Brazil. The percentage efficacy was calculated after 3, 14 and 21 days of applications.

[6] = tested on: soybean; details: Magnesium chlorate 1600, Aciflurofen 96, combination 1600 + 96 gla/Ha; remark: listed apart in the source
Method: Field trials were carried out to test the synergy of the combination magnesium chlorate and glufosinate-ammonium which is a protoporphyrinogen oxidase-inhibiting herbicides for desiccation in Soybean. The field trials were carried out at various locations in Brazil during spring. The percentage efficacy was calculated after 1, 4 and 7 days of applications.

[7] = tested on: Triticum aesti; assay type: in vivo, wheat; details: Magnesium chlorate 3000, Glufosinate ammonium 1500, combination 3000 + 1500 mL/Ha
Method: as §1
as §2, with “(Colby, S. R., Weeds, 1967 (15), p. 20-22) The Colby method requires only a single dose of each herbicide applied alone and the mixture of both doses.” left out
as §3
The defoliation activity of the individual defoliants of the invention and their combinations were evaluated on multiple crops including wheat, soybean and cotton. […]

[8] = tested on: soybean; assay type: in vivo; details: Magnesium chlorate 1600, Glufosinate ammonium 240, combination 1600 + 240 mL/Ha
Method: as §1, §2, §3, §4
as §5, with “1 and” for “1,”, “4” for “4 and 7”

[9] = tested on: Digitaria insularis
Method: Field trials were carried out to test the synergy of the combination magnesium chlorate and acifluorfen for controlling Digitaria insularis. The field trials were carried out at various locations in Brazil. The percentage efficacy was calculated after 3, 14 and 28 days of applications.

[10] = Magnesium chlorate 1200, Aciflurofen 72, combination 1200 + 72 gla/Ha
[11] = Magnesium chlorate 1600, Aciflurofen 96, combination 1600 + 96 gla/Ha
[12] = Magnesium chlorate 2000, Aciflurofen 120, combination 2000 + 120 gla/Ha
[13] = Magnesium chlorate 1200, Glufosinate 180, combination 1200 + 180 gla/Ha
[14] = Magnesium chlorate 1600, Glufosinate 240, combination 1600 + 240 gla/Ha
[15] = Magnesium chlorate 2000, Glufosinate 300, WG formulation 1600 + 300 gla/Ha

SMILES: [Mg+2].[O-][Cl+2]([O-])[O-].[O-][Cl+2]([O-])[O-] [Magnesium chlorate]
- desiccation in soybean at 1 DAA Actual [1]: 30%
- desiccation in soybean at 4 DAA Actual [1]: 56.7%
- desiccation in soybean at 7 DAA Actual [1]: 58.3%
- % control at 3 DAA Actual [2, 10]: 31.7%
- % control at 3 DAA Actual [2, 11]: 33.3%
- % control at 3 DAA Actual [2, 12]: 40%
- % control at 14 DAA Actual [2, 10]: 40%
- % control at 14 DAA Actual [2, 11]: 35%
- % control at 14 DAA Actual [2, 12]: 33.3%
- % control at 28 DAA Actual [2, 10]: 23.3%
- % control at 28 DAA Actual [2, 11]: 16.7%
- % control at 28 DAA Actual [2, 12]: 11.7%
- % control at 3 DAA Actual [3, 13]: 50%
- % control at 3 DAA Actual [3, 14]: 55%
- % control at 3 DAA Actual [3, 15]: 40%
- % control at 14 DAA Actual [3, 13]: 51.7%
- % control at 14 DAA Actual [3, 14]: 47.7%
- % control at 14 DAA Actual [3, 15]: 33.3%
- % control at 28 DAA Actual [3, 13]: 30%
- % control at 28 DAA Actual [3, 14]: 35%
- % control at 28 DAA Actual [3, 15]: 11.7%
- desiccation in soybean at 3 DAA Actual [4]: 84.3%
- desiccation in soybean at 14 DAA Actual [4]: 60%
- % control at 3 DAA Actual [5, 10]: 10.7%
- % control at 3 DAA Actual [5, 11]: 11.3%
- % control at 3 DAA Actual [5, 12]: 14%
- % control at 14 DAA Actual [5, 10]: 14.3%
- % control at 14 DAA Actual [5, 11]: 23.3%
- % control at 14 DAA Actual [5, 12]: 30%
- % control at 21 DAA Actual [5, 10]: 10.7%
- % control at 21 DAA Actual [5, 11]: 12.3%
- % control at 21 DAA Actual [5, 12]: 22.7%
- desiccation in soybean at 1 DAA Actual [6]: 21.7%
- desiccation in soybean at 4 DAA Actual [6]: 53.3%
- Defoliation in Triticum aesti at 3 DAA Actual [7]: 68%
- desiccation in soybean at 1 DAA Actual [8]: 21.7%
- desiccation in soybean at 4 DAA Actual [8]: 53.3%
- % control at 3 DAA Actual [9, 10]: 6%
- % control at 3 DAA Actual [9, 11]: 6%
- % control at 3 DAA Actual [9, 12]: 7%
- % control at 14 DAA Actual [9, 10]: 9.3%
- % control at 14 DAA Actual [9, 11]: 11.7%
- % control at 14 DAA Actual [9, 12]: 16%
- % control at 28 DAA Actual [9, 10]: 41.7%
- % control at 28 DAA Actual [9, 11]: 48.3%
- % control at 28 DAA Actual [9, 12]: 31.7%

SMILES: CP(=O)(O)CCC(N)C(=O)O (centres unmarked) [Glufosinate ammonium, glufosinate-ammonium]
- desiccation in soybean at 1 DAA Actual [1]: 0%
- desiccation in soybean at 4 DAA Actual [1]: 30%
- desiccation in soybean at 7 DAA Actual [1]: 63.3%
- % control at 3 DAA Actual [3, 13]: 13.3%
- % control at 3 DAA Actual [3, 14]: 13.3%
- % control at 3 DAA Actual [3, 15]: 63.3%
- % control at 14 DAA Actual [3, 13]: 61.7%
- % control at 14 DAA Actual [3, 14]: 90.7%
- % control at 14 DAA Actual [3, 15]: 50%
- % control at 28 DAA Actual [3, 13]: 58.3%
- % control at 28 DAA Actual [3, 14]: 95%
- % control at 28 DAA Actual [3, 15]: 33.3%
- Defoliation in Triticum aesti at 3 DAA Actual [7]: 78%
- desiccation in soybean at 1 DAA Actual [8]: 0%
- desiccation in soybean at 4 DAA Actual [8]: 18.3%

SMILES: O=C(O)c1cc(Oc2ccc(C(F)(F)F)cc2Cl)ccc1[N+](=O)[O-] [Aciflurofen, acifluorfen]
- % control at 3 DAA Actual [2, 10]: 45%
- % control at 3 DAA Actual [2, 11]: 56.7%
- % control at 3 DAA Actual [2, 12]: 63.3%
- % control at 14 DAA Actual [2, 10]: 28.3%
- % control at 14 DAA Actual [2, 11]: 35.0%
- % control at 14 DAA Actual [2, 12]: 50%
- % control at 28 DAA Actual [2, 10]: 13.3%
- % control at 28 DAA Actual [2, 11]: 31.7%
- % control at 28 DAA Actual [2, 12]: 33.3%
- desiccation in soybean at 3 DAA Actual [4]: 91.0%
- desiccation in soybean at 14 DAA Actual [4]: 10%
- % control at 3 DAA Actual [5, 10]: 13%
- % control at 3 DAA Actual [5, 11]: 17.7%
- % control at 3 DAA Actual [5, 12]: 18.3%
- % control at 14 DAA Actual [5, 10]: 30%
- % control at 14 DAA Actual [5, 11]: 50%
- % control at 14 DAA Actual [5, 12]: 50%
- % control at 21 DAA Actual [5, 10]: 50%
- % control at 21 DAA Actual [5, 11]: 74.3%
- % control at 21 DAA Actual [5, 12]: 61.7%
- desiccation in soybean at 1 DAA Actual [6]: 0%
- desiccation in soybean at 4 DAA Actual [6]: 11.7%
- % control at 3 DAA Actual [9, 10]: 7.7%
- % control at 3 DAA Actual [9, 11]: 28.3%
- % control at 3 DAA Actual [9, 12]: 31.7%
- % control at 14 DAA Actual [9, 10]: 38.3%
- % control at 14 DAA Actual [9, 11]: 78.3%
- % control at 14 DAA Actual [9, 12]: 87%
- % control at 28 DAA Actual [9, 10]: 81.7%
- % control at 28 DAA Actual [9, 11]: 98.7%
- % control at 28 DAA Actual [9, 12]: 95.3%
